# Test results published in US20260306460A1, “COMPOSITION FOR REMOVING AND INHIBITING SENESCENT CELLS, AND USES THEREOF” (LIFECEUTIX CO., LTD., priority 2023, published 2026).
# How the values were obtained:
# Type in all cases: in vivo, mouse
# [1] = tested on: naturally aged C57BL6J mice; experiment: Osteoclast marker mRNA (Ctsk, Ocstamp, Oscar, Rank, Trap) in femur of naturally aged mice, Example 21-14, Table 29; conditions: left femur, untreated aged = 100%
# Experimental: (§1) 22-month-old female C57BL6J mice (KRIBB Laboratory Animal Resource Center) were acclimated to the experimental environment for one week, after which the aged mice were randomly assigned to experimental and control groups. Eight-week-old, non-aged mice served as controls. LX-403 was mixed in a 10% ethanol solution of PEG400 and administered orally at a concentration of 25 mg/kg daily for 21 days, or administered to the skin, joints, or eyes at a concentration of 1 μM. LX-1801 was mixed in distilled water with 4% DMSO, 30% PEG300, and 5% Tween80 and administered to the skin, joints, or eyes at a concentration of 0.4 μM daily for 21 days. LX-2001 was mixed in PBS and administered to the skin, joints, or eyes at a concentration of […] daily for 21 days. LX-2002 was mixed in distilled water with 4% DMSO, 30% PEG300, and 5% Tween80 and administered to the skin, joints, or eyes at a concentration of 2 μM daily for 21 days. […] LX-2005 was mixed in distilled water with 4% DMSO, 30% PEG300, and 5% Tween80 and administered to the skin, joints, or eyes at a concentration of 90 μM daily for 21 days. LX-2007 was mixed in distilled water with 4% DMSO, 30% PEG300, and 5% Tween80 and administered to the skin, joints, or eyes at a concentration of 90 μM daily for 21 days. […] LX-3002 was mixed in distilled water with 4% DMSO, 30% PEG300, and 5% Tween80 and administered orally at a concentration of 10 mg/kg daily for 21 days. […] LX-5411 was mixed in 5% PBS and administered orally at a concentration of 10 mg/kg daily for 21 days or administered to the skin, joints, or eyes at a concentration of 3 μM. LX-5701 was mixed in PBS and administered orally at a concentration of 360 mg/kg daily for 21 days. LX-6807 was mixed in saline and administered intraperitoneally at a concentration of 1 mg/kg daily for 21 days. LX-2101 or LX-2102 was mixed in PBS solution with 5% DMSO and administered intraperitoneally at a concentration of 20 mg/kg or 10 mg/kg, respectively, daily for 21 days. The control group received only the solution in the same volume. After the end of drug administration, the methods described in each example below were performed.
# Senile osteoporosis is a metabolic bone disease characterized by decreased bone density and a high fracture risk. It occurs in both men and women with aging. The accumulation of senescent cells is known to contribute to osteoporosis by increasing bone resorption by osteoclasts and decreasing bone formation by osteoblasts through the senescence-associated secretory factor (SASP). RNA was extracted from the left femur of mice as described in Example 7-2 WO2023-085787 A1, and qRT-PCR was performed using the synthesized cDNA. […] The amount of each factor after aging was induced was calculated as 100% and compared with the amount of each factor after treatment with the test compound.
# [2] = tested on: naturally aged C57BL6J mice; experiment: SASP mRNA (MMP3, IL1B, MMP12, IL6, MMP13) in naturally aged mice, Example 21-6, Table 22; conditions: untreated aged = 100%
# Experimental: as §1
# Using cDNA synthesized in the same manner as Example 7-2 of WO2023-085787 A1, qRT-PCR was performed and analyzed for the senescence-associated secretory factors (SASPs) MMP3, IL1B, MMP12, IL6, and MMP13. […] The mRNA levels of each factor after aging induction were calculated as 100% and compared with the mRNA levels of each factor after test compound treatment.
# [3] = tested on: doxorubicin-induced aged C57BL6J mice; experiment: Liver damage (AST, ALT) in doxorubicin-aged mice, Example 22-8, Table 37; conditions: serum, amount after aging calculated as 100%
# Experimental: Eight-week-old male C57BL6J mice (KRIBB Laboratory Animal Resource Center) were acclimated to the experimental environment for one week. […] The aging-induced mice were randomly assigned to experimental and control groups. […] The control group received only the solution in the same volume.
# The amounts were measured spectrophotometrically using a kit (Sigma) according to the manufacturer's instructions. […] The amount of each factor after aging was calculated as 100% and compared with the amount of each factor after treatment with the test compound.
# [4] = tested on: doxorubicin-induced aged C57BL6J mice; experiment: Kidney damage (urea, creatinine, Agtr1a mRNA) in doxorubicin-aged mice, Example 22-9, Table 38; conditions: amount after aging calculated as 100%; for Creatinine / Urea: serum
# Experimental: Eight-week-old male C57BL6J mice (KRIBB Laboratory Animal Resource Center) were acclimated to the experimental environment for one week. Afterwards, the anticancer agent doxorubicin was administered intraperitoneally at a concentration of 10 mg/kg, inducing aging for more than 10 days. The aging-induced mice were randomly assigned to experimental and control groups. LX-403 was mixed with a 10% ethanol solution of PEG400 and administered orally at a concentration of 25 mg/kg or intradermally at a concentration of 1 μM for 21 days. LX-1801 was mixed in distilled water with 4% DMSO, 30% PEG300, and 5% Tween80 and administered intradermally at a concentration of 0.4 μM daily for 21 days. LX-2001 was mixed in PBS and administered intradermally at a concentration of 2 μM daily for 21 days. LX-2002 was mixed in distilled water with 4% DMSO, 30% PEG300, and 5% Tween80 and administered intradermally at a concentration of 2 μM daily for 21 days. […] LX-2005 was mixed in distilled water with 4% DMSO, 30% PEG300, and 5% Tween80 and administered intradermally at a concentration of 90 μM daily for 21 days. LX-2007 was mixed in distilled water with 4% DMSO, 30% PEG300, and 5% Tween80 and administered intradermally at a concentration of 90 μM daily for 21 days. […] LX-3002 was mixed in distilled water with 4% DMSO, 30% PEG300, and 5% Tween80 and administered orally at a concentration of 10 mg/kg daily for 21 days. […] LX-5411 was mixed in 5% phosphate-buffered saline (PBS) and administered orally at a concentration of 10 mg/kg daily for 21 days or intradermally at a concentration of 3 μM. LX-5701 was mixed in PBS and administered orally at a concentration of 360 mg/kg daily for 21 days. LX-6807 was mixed in saline and administered intraperitoneally at a concentration of 1 mg/kg daily for 21 days. The control group received only the solution in the same volume. After the end of drug administration, the methods described in each example below were performed.
# The amounts of urea and creatinine, markers of kidney damage, were measured spectrophotometrically in serum collected from mice using the same method as in Examples 7-8 of WO2023-085787 A1. […] The amount of each factor after aging was calculated as 100% and compared with the amount of each factor after treatment with the test compound.
Compound,Ctsk mRNA (%) [1],Ocstamp mRNA (%) [1],Oscar mRNA (%) [1],Rank mRNA (%) [1],Trap mRNA (%) [1],"MMP13 mRNA (%), Eye [2]","IL1β mRNA (%), Kidney [2]","MMP13 mRNA (%), Knee joint [2]","MMP3 mRNA (%), Liver [2]","MMP12 mRNA (%), Lung [2]","IL6 mRNA (%), Muscle [2]","MMP3 mRNA (%), Skin [2]","MMP12 mRNA (%), Skin [2]","MMP13 mRNA (%), Skin [2]",ALT [3],AST [3],Agtr1a mRNA [4],Creatinine [4],Urea [4]
"CC1(C)CC[C@]2(NC(=O)C(C)(F)F)CC[C@]3(C)[C@H](C(=O)C=C4[C@@]5(C)C=C(C#N)C(=O)C(C)(C)[C@@H]5CC[C@]43C)[C@@H]2C1 [LX-2101, Omaveloxolone]",61 (±12.1) %,69 (±10.3) %,79 (±5.6) %,75 (±2.7) %,50 (±14.2) %,35%,73%,46%,45%,58%,69%,81%,82%,38%,–,–,–,–,–
"COC(=O)[C@]12CCC(C)(C)C[C@H]1[C@H]1C(=O)C=C3[C@@]4(C)C=C(C#N)C(=O)C(C)(C)[C@@H]4CC[C@@]3(C)[C@]1(C)CC2 [LX-2102, Bardoxolone methyl]",–,–,–,–,–,71%,68%,77%,56%,66%,81%,83%,78%,68%,–,–,–,–,–
"CCCC\C=C/C=C/C=C\CCCCCCCC(=O)O [LX-2707, Punicic acid]",64 (±8.6) %,73 (±3.2) %,54 (±3.4) %,67 (±3.4) %,51 (±5.2) %,–,–,–,–,–,–,–,–,–,76 (±5.6) %,70 (±3.2) %,62 (±3.8) %,75 (±5.3) %,80 (±3.3) %
O=C1C2CCN(CC2)C1CNC(=O)C(F)(F)F (stereo not shown) [LX-5701],57 (±13.0) %,70 (±6.7) %,72 (±7.2) %,68 (±10.4) %,63 (±18.4) %,71%,58%,61%,59%,70%,38%,79%,71%,62%,64 (±15.7) %,72 (±13.5) %,60 (±10.4) %,80 (±5.0) %,75 (±5.9) %
"Cc1cccc([C@H](C)c2cnc[nH]2)c1C [LX-6807, Dexmedetomidine]",42 (±2.7) %,53 (±5.1) %,37 (±2.0) %,57 (±3.9) %,48 (±2.1) %,–,–,–,–,–,–,–,–,–,80 (±6.7) %,75 (±7.0) %,43 (±3.0) %,73 (±2.7) %,72 (±5.8) %
Tocofersolan [LX-3001],67 (±7.2) %,75 (±3.3) %,61 (±4.7) %,56 (±6.3) %,78 (±6.8) %,–,–,–,–,–,–,–,–,–,–,–,70 (±5.8) %,85 (±4.4) %,76 (±2.8) %
